Patent publication US12479816B2, “20-HETE formation inhibitors” (UNIVERSITY OF PITTSBURGH—OF THE COMMONWEALTH SYSTEM OF …, priority 2019, dated 2025)
≈ marks a conversion by molar mass, not a printed value.

Key:
[1] = tested on: 20-HETE formation (CYP4) in HLM; experiment: Inhibition of 20-HETE formation at 250 or 500 nM in HLM microsomal incubations; format: biochemical, human; settings: 500 nM compound; HLM 300 μg/ml, AA 100 μM, 20 min
Protocol: (§1) To screen the inhibitory effects against 20-HETE formation, compounds were screened in HLM, RLM, RKM and rCYP4F2 microsomal incubations. Compounds dissolved in either 100% methanol or 100% DMSO to yield 10 mM stock solution. Microsomal incubations containing HLM, RLM, RKM (300 μg/ml) or rCYP4F2 (25 pmol/mL), AA (100 μM), NADPH (1 mM) treated with test compounds at various concentrations (500 nM or 250 nM) in a 1 ml total volume in incubation buffer (0.12 M potassium phosphate buffer containing 5 mM magnesium chloride). Reaction was started by adding NADPH to the incubates and was carried out at 37° C. in a shaking water bath for 20 min. Reaction was stopped by placing tubes on ice, followed by adding 125 μl 20-HETE-d6 as internal standard to each sample. Microsomal incubations were extracted with 3 ml ethyl ether twice, dried down under nitrogen gas and reconstituted in 125 μl 80:20 methanol:deionized H2O for analysis. 20-HETE formation was quantified using a validated UPLC-MS/MS assay and normalized by vehicle group. Each compound had three replications (n=3). Vehicle group was used as control to calculate percentage of 20-HETE formation rate. HET0016 (250 nM) was used as positive control. Incubates without NADPH group served as the negative control. An Acquity ultra performance LC autosampler (Waters, Milford, MA) was used to isolate 20-HETE on an UPLC BEH C18, 1.7 μm (2.1×100 mm) reversed-phase column (Waters, Milford, MA) protected by a guard column (2.1×5 mm; Waters, Milford, MA) of the same packing material. Column temperature was maintained at 55° C. Mobile phases consisted of 0.005% acetic acid, 5% acetonitrile in deionized water (A) and 0.005% acetic acid in acetonitrile (B). The flow rate for mobile phases is 0.5 ml/min. The initial mixture of mobile phase was 65:35 of A and B. Mobile phase B increased at 0.4 minutes after injection from 35% to 70% in a linear gradient over 4 minutes, and again increased to 95% over 0.5 minutes where it remained for 0.3 minutes. This was followed by a linear return to initial conditions over 0.1 minutes with a 1.5 minute pre-equilibration period prior to the next sample run. Total run time was 6.4 minutes for each injection. Injection volumes were 7.5 μl. Mass spectrometric analysis was carried out using a TSQ Quantum Ultra (Thermo Fisher Scientific, San Jose, CA) triple quadrupole mass spectrometer using heated electrospray ionization (HESI). Mass spectrometer was operated in negative selective reaction monitoring (SRM) mode with unit resolutions at both Q1 and Q3 set at 0.70 Da full width at half maximum. Scan time was set at 0.01 s and collision gas pressure was 1.3 mTorr. Quantitation of 20-HETE by SRM was performed by monitoring the m/z. Analytical data was acquired and analyzed using Xcaliber 3.0 data system (ThermoFinnigan, San Jose, CA).

rCYP4F2 = molecular target: T1, rCYP4F2 (Homo sapiens, UniProt P78329); experiment: Inhibition of 20-HETE formation at 250 or 500 nM in rCYP4F2 incubations; format: biochemical; settings: 500 nM compound; rCYP4F2 25 pmol/mL; read-out: rCYP4F2 % inh. @ 500 nM
T1 sequence (P78329 5-520): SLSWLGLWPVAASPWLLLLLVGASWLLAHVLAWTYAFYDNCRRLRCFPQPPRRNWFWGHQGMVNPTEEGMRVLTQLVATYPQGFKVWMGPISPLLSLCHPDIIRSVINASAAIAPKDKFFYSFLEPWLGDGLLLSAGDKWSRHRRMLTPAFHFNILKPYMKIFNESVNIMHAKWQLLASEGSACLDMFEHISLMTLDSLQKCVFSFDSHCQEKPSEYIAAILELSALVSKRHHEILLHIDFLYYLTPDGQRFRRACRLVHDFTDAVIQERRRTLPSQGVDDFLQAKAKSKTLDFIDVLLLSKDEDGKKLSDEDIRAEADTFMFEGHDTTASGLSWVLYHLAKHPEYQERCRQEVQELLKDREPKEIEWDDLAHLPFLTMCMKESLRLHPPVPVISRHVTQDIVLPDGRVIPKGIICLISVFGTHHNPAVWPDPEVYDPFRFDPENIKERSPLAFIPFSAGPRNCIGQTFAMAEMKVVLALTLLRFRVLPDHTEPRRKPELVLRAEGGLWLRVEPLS
Protocol: as §1

[2] = tested on: 20-HETE formation (CYP4) in RLM; experiment: Inhibition of 20-HETE formation at 250 or 500 nM in RLM microsomal incubations; format: biochemical, rat; settings: 500 nM compound; RLM 300 μg/ml
Protocol: as §1

[3] = Turbidometric solubility determination; format: physicochemical; settings: PBS with 1% DMSO, aqueous buffer, kinetic from dmso stock, room temperature, OD620, read-out: Max Solub
Protocol: Solubility determinations shown in Table 3 were obtained turbidometrically and in a manner similar to the one described in Perez et al., J. Biomol. Screen, 2015, 20(2), 254-64. The method requires small volumes of 100× stock concentration drug solution to be prepared in DMSO 0, 0.23, 0.47, 0.94, 1.88, 3.75, 7.5, 15.0, 30.0 and […]. The stock drug concentrations are then diluted 1:100 added into triplicate wells containing PBS in a clear bottom 384 well microtiter to achieve final testing concentrations of 0, 2.3, 4.7, 9.4, 18.8, 37.5, 75, 150, 300, 600 μM in 1% DMSO. The plate is allowed to equilibrate with constant shaking for 2 hours at room temperature. The plate is then placed in a SpectroMax V plate reader to measure absorbance at 620 nm. Increase in absorbance is evident in test wells which precipitation of the compound is evident. The plot of OD620 vs. drug concentration is used to calculate the maximum solubility limit as determined by a statistically significant increase in absorbance above the background levels.

In the case of `Clc1cccc(C2CCN(c3cn[nH]c3)CC2)c1` [Compound 61, 4-(3-Chlorophenyl)-1-(1H-pyrazol-4-yl)piperidine], the “HLM % inh. @ 500 nM” value [1] is reported as 77.5%, the inhibition at 0.5 µM (rCYP4F2) is reported as 81.3% and the “RLM % inh. @ 500 nM” value [2] is reported as 61.00%. The solubility at 2 h [3] was 121 µM (≈ 31.7 µg/mL).
With `Clc1ccc(C2CCN(c3ccn[nH]3)CC2)cc1` [Compound 62, 4-(4-chlorophenyl)-1-(1H-pyrazol-5-yl)piperidine] the “HLM % inh. @ 500 nM” value [1] was 60.0%, the inhibition at 0.5 µM (rCYP4F2) was 45% and the “RLM % inh. @ 500 nM” value [2] was 0.00%. The solubility at 2 h [3] was 42.4 µM (≈ 11.1 µg/mL).
With `Clc1ccc(C2CCN(c3cn[nH]c3)CC2)cc1` [Compound 63, 4-(4-chlorophenyl)-1-(1H-pyrazol-4-yl)piperidine] the “HLM % inh. @ 500 nM” value [1] was 74.3%, the inhibition at 0.5 µM (rCYP4F2) was 73.8% and the “RLM % inh. @ 500 nM” value [2] was 10.30%. It also gave a solubility at 2 h [3] of 13.3 µM (≈ 3.48 µg/mL).
In the case of `COc1ccc(C2CCN(c3cn[nH]c3)CC2)c(Cl)c1` [Compound 65, 4-(2-Chloro-4-methoxyphenyl)-1-(1H-pyrazol-4-yl)piperidine], the “HLM % inh. @ 500 nM” value [1] is reported as 57.00%, the inhibition at 0.5 µM (rCYP4F2) is reported as 35% and the “RLM % inh. @ 500 nM” value [2] is reported as 0.00%. The solubility at 2 h [3] was 18.7 µM (≈ 5.46 µg/mL).
With `COc1ccc(C2CCN(c3ccn[nH]3)CC2)c(Cl)c1` [Compound 66, 4-(2-Chloro-4-methoxyphenyl)-1-(1H-pyrazol-5-yl)piperidine] the “HLM % inh. @ 500 nM” value [1] was 36%, the inhibition at 0.5 µM (rCYP4F2) was 58% and the “RLM % inh. @ 500 nM” value [2] was 0.00%. The solubility at 2 h [3] was 133 µM (≈ 38.8 µg/mL).
With `COc1ccc(C2CCN(c3ccn[nH]3)CC2)cc1Cl` [Compound 67, 4-(3-Chloro-4-methoxyphenyl)-1-(1H-pyrazol-5-yl)piperidine] the “HLM % inh. @ 500 nM” value [1] was 83.2%, the inhibition at 0.5 µM (rCYP4F2) was 90.9% and the “RLM % inh. @ 500 nM” value [2] was 30.20%. For the same compound, the solubility at 2 h [3] was 205 µM (≈ 59.8 µg/mL).
In the case of `Fc1ccc(SC2CCN(c3cn[nH]c3)CC2)cc1` [Compound 70, 4-((4-Fluorophenyl)thio)-1-(1H-pyrazol-4-yl)piperidine], the “HLM % inh. @ 500 nM” value [1] is reported as 84.8%, the inhibition at 0.5 µM (rCYP4F2) is reported as 80.5% and the “RLM % inh. @ 500 nM” value [2] is reported as 35.70%. The solubility at 2 h [3] was 109 µM (≈ 30.2 µg/mL).
In the case of `CC(=O)N(C)c1ccc(C2CCN(c3ccn[nH]3)CC2)c(F)c1` [Compound 71, N-(4-(1-(1H-Pyrazol-5-yl)piperidin-4-yl)-3-fluorophenyl)-N-methylacetamide], the “HLM % inh. @ 500 nM” value [1] is reported as 82%, the inhibition at 0.5 µM (rCYP4F2) is reported as 52.2% and the “RLM % inh. @ 500 nM” value [2] is reported as 25.00%. For the same compound, the solubility at 2 h [3] was greater than 600 µM.
In the case of `COc1cc(F)cc(C2CCN(c3cn[nH]c3)CC2)c1` [Compound 72, 4-(3-Fluoro-5-methoxyphenyl)-1-(1H-pyrazol-4-yl)piperidine], the “HLM % inh. @ 500 nM” value [1] is reported as 77%, the inhibition at 0.5 µM (rCYP4F2) is reported as 77% and the “RLM % inh. @ 500 nM” value [2] is reported as 11.00%. The solubility at 2 h [3] was 234 µM (≈ 64.4 µg/mL).
In the case of `FC(F)(F)c1cncc(C2CCN(c3ccn[nH]3)CC2)c1` [Compound 103, 3-(1-(1H-Pyrazol-5-yl)piperidin-4-yl)-5-(trifluoromethyl)pyridine], the “HLM % inh. @ 500 nM” value [1] is reported as 0.00%, the inhibition at 0.5 µM (rCYP4F2) is reported as 0% and the “RLM % inh. @ 500 nM” value [2] is reported as 0.00%.
For `Nc1ccc(C2CCN(c3cn[nH]c3)CC2)cc1` [Compound 105, 4-(1-(1H-pyrazol-4-yl)piperidin-4-yl)aniline], the “HLM % inh. @ 500 nM” value [1] was 77.30%, the inhibition at 0.5 µM (rCYP4F2) was 78% and the “RLM % inh. @ 500 nM” value [2] was 17.00%.
With `O=S1(=O)CCc2cc(C3CCN(c4ccn[nH]4)CC3)ccc21` [Compound 106, 5-(1-(1H-Pyrazol-5-yl)piperidin-4-yl)-2,3-dihydrobenzo[b]thiophene 1,1-dioxide] the “HLM % inh. @ 500 nM” value [1] was 0.00%, the inhibition at 0.5 µM (rCYP4F2) was 0% and the “RLM % inh. @ 500 nM” value [2] was 0.00%.
In the case of `O=[N+]([O-])c1ccc(C2CCN(c3cn[nH]c3)CC2)cc1` [Compound 111, 4-(4-Nitrophenyl)-1-(1H-pyrazol-4-yl)piperidine], the “HLM % inh. @ 500 nM” value [1] is reported as 43.5%, the inhibition at 0.5 µM (rCYP4F2) is reported as 60.1% and the “RLM % inh. @ 500 nM” value [2] is reported as 22.30%.
For `O=[N+]([O-])c1ccc(C2CCN(c3ccn[nH]3)CC2)cc1` [Compound 112, 4-(4-Nitrophenyl)-1-(1H-pyrazol-5-yl)piperidine], the “HLM % inh. @ 500 nM” value [1] was 21.90%, the inhibition at 0.5 µM (rCYP4F2) was 41.3% and the “RLM % inh. @ 500 nM” value [2] was 20.30%.
With `CS(=O)(=O)Nc1ccc(C2CCN(c3cn[nH]c3)CC2)cc1` [Compound 113, N-(4-(1-(1H-pyrazol-4-yl)piperidin-4-yl)phenyl)methanesulfonamide] the “HLM % inh. @ 500 nM” value [1] was 30.5%, the inhibition at 0.5 µM (rCYP4F2) was 67.6% and the “RLM % inh. @ 500 nM” value [2] was 14.30%.
With `O=C1CCCN1Cc1ccc(C2CCN(c3cn[nH]c3)CC2)c(F)c1` [Compound 118, 1-(4-(1-(1H-Pyrazol-4-yl)piperidin-4-yl)-3-fluorobenzyl)pyrrolidin-2-one] the solubility at 2 h [3] was 443 µM (≈ 152 µg/mL).
Compound `Cl.O=C1CCCN1c1ccc(C2CCN(c3cn[nH]c3)CC2)cc1` [Compound 119, 1-(4-(1-(1H-Pyrazol-4-yl)piperidin-4-yl)phenyl)pyrrolidin-2-one hydrochloride] has a solubility at 2 h [3] of 63 µM.
With `c1cc(C2CCN(c3cn[nH]c3)CC2)ccc1CN1CCOCC1` [Compound 121, 4-(4-(1-(1H-Pyrazol-4-yl)piperidin-4-yl)benzyl)morpholine] the solubility at 2 h [3] was 122 µM (≈ 39.9 µg/mL).
With `O=C1COCCN1c1ccc(C2CCN(c3cn[nH]c3)CC2)cc1` [Compound 122, 4-(4-(1-(1H-Pyrazol-4-yl)piperidin-4-yl)phenyl)morpholin-3-one] the solubility at 2 h [3] was 247 µM (≈ 80.7 µg/mL).
With `Fc1cc(C2CCN(c3cn[nH]c3)CC2)ccc1N1CCOCC1` [Compound 123, 4-(4-(1-(1H-Pyrazol-4-yl)piperidin-4-yl)-2-fluorophenyl)morpholine] the solubility at 2 h [3] was 85.5 µM (≈ 28.2 µg/mL).
In the case of `Fc1cc(N2CCOCC2)ccc1C1CCN(c2cn[nH]c2)CC1` [Compound 124, 4-(4-(1-(1H-Pyrazol-4-yl)piperidin-4-yl)-3-fluorophenyl)morpholine], the solubility at 2 h [3] is reported as 26.6 µM (≈ 8.79 µg/mL).
Compound `C[C@H](c1ccc(C2CCN(c3cn[nH]c3)CC2)cc1)N1CCCC1=O` [Compound 125, (R)-1-(1-(4-(1-(1H-pyrazol-4-yl)piperidin-4-yl)phenyl)ethyl)pyrrolidin-2-one] has a solubility at 2 h [3] greater than 600 µM.
For `C[C@@H](c1ccc(C2CCN(c3cn[nH]c3)CC2)cc1)N1CCCC1=O` [Compound 126, (S)-1-(1-(4-(1-(1H-pyrazol-4-yl)piperidin-4-yl)phenyl)ethyl)pyrrolidin-2-one], the solubility at 2 h [3] was greater than 600 µM.
With `COc1ccc(CC2CCN(c3cn[nH]c3)CC2)cc1` [Compound 127, 4-[(4-Methoxyphenyl)methyl]-1-(1H-pyrazol-4-yl)piperidine] the solubility at 2 h [3] was 151 µM (≈ 41 µg/mL).
